According to patent US20210322404A1, “FGFR REGULATION FOR THE TREATMENT OF VIRAL INFECTIONS” (ETH ZURICH, priority 2016, published 2021):
“Also recorded” adds a separate entry of the source.

Key:
[1] = tested on: interferon-stimulated genes (ISGs); experiment: ISG expression in primary mouse keratinocytes pre-incubated with inhibitors, then treated with FGF7 (qRT-PCR); format: cell-based; conditions: primary keratinocytes from wild-type mice; inhibitor 3 h (SB203580 5 μM, NSC23766 50 μM, AZD4547 1 μM), then FGF7 10 ng/ml 6 h
HSV-1 = HSV-1 infection of HaCaT cells, virus load; format: cell-based, Herpes Simplex Virus type 1; conditions: HaCaT; for amount and size of Glyc-D-positive fused cells (immunofluorescence): HSV-1; for amount and size of Glyc-D-positive fused cells (immunofluorescence) / Glyc-B DNA levels (viral load, qPCR relative to human β-actin gene): NSC23766 20 μM, AZD4547 1 μM; for Glyc-B DNA levels (viral load, qPCR relative to human β-actin gene): HSV-1 MOI=0.5, +/- FGF7 10 ng/ml, BGJ398 3.5 μM
Description: FIGS. 5A-C relate to HaCaT cells infected with HSV-1 (MOI=0.5) after overnight serum starvation, either alone or in combination with FGF7 (10 ng/ml) or IFNα (1000U/ml). 24 h after infection, virus load was determined by qPCR for the HSV-1 Glycoprotein B (Glyc-B) gene relative to the human β-actin gene (A) or visualized by immunofluorescence staining for HSV-1 Glycoprotein D (Glyc-D) (red) (B). The Glyc-B/β-actin gene ratio in HSV-1 infected cells was set to 1. Cell nuclei were stained with DAPI (blue). Magnification bar: 200 μm. (C) Transmission microscopy images of HaCaT cells taken 48 h after HSV-1 infection. […] Magnification bar: 80 μm. Representative data out of four experiments are shown.
FIGS. 5 D & E relate to overnight-starved HaCaT cells infected with HSV-1 (MOI=0.5) alone or in combination with IFNα (1000 U/ml), IFNα and FGF7 (10 ng/ml) (D); or FGF7 at different concentrations (E).
FIG. 5F pertains to serum-starved HaCaT cells that were infected with HSV-1 (MOI 0.5-1). After 4 h, infected cells were washed with PBS, followed by addition of fresh serum-free culture medium containing FGF7 (10 ng/ml).
FIGS. 5G-K pertains to overnight-starved HaCaT cells infected with HSV-1 (MOI=0.5) alone or in combination with FGF7, which was added at the indicated time points. 12 h after infection, cells were analyzed for Glyc-B DNA (H) and, RSAD2 and IRF7 mRNA levels by qPCR/qRT-PCR (I) or for ISG protein levels by western blotting (K). Vinculin was used as loading control.
FIGS. 7A-C relate to serum-starved HaCaT cells that were infected with HSV-1 in the presence or absence of FGF7 (10 ng/ml), NSC23766 (20 μM), the FGFR kinase inhibitors AZD4547 (1 μM) and BGJ398 (3.5 μM) (A) or IFNα (1000 U/ml) (B). […] Magnification bar: 500 μm. The Glyc-D positive area was quantified using digital pixel measurements (C, right). A representative out of two experiments is shown.
Frozen sections from mouse back skin were fixed with cold methanol, and unspecific binding sites were blocked with PBS/2% bovine serum albumin (BSA) (Sigma)/1% fish skin gelatin (Sigma)/0.05% Triton X-100 (Carl Roth GmbH, Karlsruhe, Germany) for 2 h at room temperature. Samples were then incubated overnight at 4° C. with anti-IRF7 or anti-K14 antibodies diluted in the same buffer. After three washes with 1×PBS/0.1% Tween 20 (Carl Roth GmbH), slides were incubated at room temperature (RT) for 4 h with secondary antibodies (AF555-conjugated anti-rabbit IgG and AF488-conjugated anti-mouse IgG) and DAPI (4′,6-diamidino-2-phenylindole dihydrochloride) (Sigma) as counter-stain, washed again and mounted with Mowiol (Hoechst, Frankfurt, Germany). Stained sections were photographed with a Leica SP1-2 confocal microscope equipped with a 63×0.6-1.32 NA (Iris) PL Apo Oil objective. For data acquisition the Leica Confocal Software (Leica, Wetzlar, Germany) was used. For immunofluorescence staining of cultured cells, they were washed with PBS and either fixed for 5 min with cold methanol for staining with antibodies against ZO-1 and IRF7, or with 4% paraformaldehyde (PFA) (Sigma) for 20 min at RT for Glyc-D staining. PFA-fixed cells were then incubated for 10 min with 0.5% Triton X-100 in PBS. After 1 h blocking in PBS containing 2% BSA, cells were stained with the primary antibodies for 1 h in the same blocking buffer. After three washes with PBS, cells were incubated with the secondary antibodies (AF555-conjugated anti-mouse IgG, AF488-conjugated anti-mouse IgG and AF555-conjugated anti-rabbit IgG) and DAPI.

[2] = tested on: interferon-stimulated response element (ISRE); experiment: ISRE luciferase reporter assay in immortalized mouse keratinocytes; format: cell-based; conditions: FGF7 10 ng/ml and/or IFNα 1000 U/ml, 12 h
Description: FIG. 3C pertains to immortalized mouse keratinocytes that were co-transfected with TK-Renilla and pGL4.45[luc2P/ISRE/Hygro] plasmids, starved in serum-free medium and then treated with FGF7 (10 ng/ml) and/or IFNα (1000 U/ml) for 12 h. Firefly luciferase activity was determined in cell lysates and normalized to Renilla luciferase activity (transfection control). The mean value in vehicle-treated cells (CTRL) was set to 1.
Mouse keratinocytes and HEK 293 cells were transfected with the expression vector for TK-Renilla and the expression vector pGL4.45[luc2P/ISRE/Hygro] (Promega). The latter contains five copies of an ISRE that drives expression of the luciferase reporter gene. Cells were seeded into 12-well plates, cultured for 24 h, and transfected using Lipofectamine 2000 […]. They were then starved in serum-free medium, treated with FGF7 (10 ng/ml) and/or IFNα (1000 U/ml) for 12 h, lysed and analyzed using a dual-luciferase assay system (Promega) as described by the manufacturer. Relative light units were measured in a GloMax 96 microplate luminometer with dual injectors (Promega).

LCMV = format: cell-based, Lymphocytic Choriomeningitis Virus; conditions: HaCaT, LCMV MOI 0.05 or 0.2
HCV = conditions: hepatic / hepatoma cells, Van et al.; cited from earlier work
[3] = tested on: interferon-stimulated genes (ISGs); experiment: ISG expression in human keratinocytes (HaCaT, primary foreskin) treated with FGF7, FGF10 and/or IFNα (qRT-PCR); format: cell-based; conditions: HaCaT, 10 ng/ml, 6 h
Description: FIG. 2F relates to serum-starved immortalized human keratinocytes (HaCaT cell line) that were treated for 6 h with FGF7, FGF10 (both 10 ng/ml) or vehicle (CTRL). RNA was analyzed by qRT-PCR for the expression of the indicated ISGs relative to RPLP0. Mean expression levels in CTRL cells were set to 1. Representative data from three experiments are shown. Scatter plot and mean values are shown in (A-D). Each dot represents a biological replicate.
FIGS. 3E and F pertain to confluent human primary foreskin keratinocytes and (E) or HaCaT cells (F) that were serum-starved for 24 h and treated with FGF7 (10 ng/ml) and/or IFNα (500 U/ml) for 16 h. Cells were analyzed for ISG mRNA levels by qRT-PCR relative to RPLP0. Mean expression levels in vehicle-treated (CTRL) cells were set to 1.
The human HaCaT keratinocyte cell line was cultured in DMEM (Sigma) supplemented with 10% FCS (Thermo Fisher). […]
Total RNA from isolated epidermis of mice or from total skin was purified with Trizol, followed by additional purification with the RNeasy Mini Kit, including on-column DNase treatment (Qiagen, Hilden, Germany). […] Relative gene expression was determined using the Roche LightCycler 480 SYBR Green system (Roche, Rotkreuz, Switzerland).

Molecule: COc1cc(CCc2cc(NC(=O)c3ccc(N4C[C@@H](C)N[C@@H](C)C4)cc3)n[nH]2)cc(OC)c1 [AZD4547, N-[5-[2-(3,5-dimethoxyphenyl)ethyl]-1H-pyrazol-3-yl]-4-[(3R,5S)-3,5-dimethylpiperazin-1-yl]benzamide, reference compound]
- FGF7-mediated ISG downregulation (ISG mRNA relative to Rps29) [1]: The same effect was observed
- amount and size of Glyc-D-positive fused cells (immunofluorescence) (HSV-1): strongly reduced the amount of Glyc-D-positive fused cells
- Glyc-B DNA levels (viral load, qPCR relative to human β-actin gene) (HSV-1): inhibited the positive effect of FGF7 on viral replication

Molecule: IFNα
- appearance of HSV-1 infected cells (transmission microscopy) (HSV-1; 48 h after infection): almost indistinguishable from non-infected cells
- viral glycoprotein B (Glyc-B) DNA (HSV-1; HSV-1 MOI=0.5, FGF7 10 ng/ml or IFNα 1000 U/ml): had the opposite effect
- ISRE-driven luciferase activity [2]: significant increase in luciferase activity
- expression levels of LCMV nucleoprotein (NP) / viral replication (LCMV): blocked the viral replication

Molecule: CCN(CC)CCCC(C)Nc1nc(C)cc(Nc2ccc3nc(C)cc(N)c3c2)n1 (racemic) [NSC23766, 6-N-[2-[5-(diethylamino)pentan-2-ylamino]-6-methylpyrimidin-4-yl]-2-methylquinoline-4,6-diamine, reference compound]
- FGF7-mediated ISG downregulation (ISG mRNA relative to Rps29) [1]: partially or even completely rescued the FGF7-mediated ISG downregulation
- amount and size of Glyc-D-positive fused cells (immunofluorescence) (HSV-1): strongly reduced the amount of Glyc-D-positive fused cells
- Glyc-B DNA levels (viral load, qPCR relative to human β-actin gene) (HSV-1): strongly reduced

Molecule: FGF2: fibroblast growth factor-2
- HCV replication (HCV): promoted hepatitis C RNA replication and production of novel particles; also recorded: enhanced viral replication and new particle production, but not infection with the virus

Molecule: CCN1CCN(c2ccc(Nc3cc(N(C)C(=O)Nc4c(Cl)c(OC)cc(OC)c4Cl)ncn3)cc2)CC1 [BGJ398, 3-(2,6-dichloro-3,5-dimethoxyphenyl)-1-[6-[4-(4-ethylpiperazin-1-yl)anilino]pyrimidin-4-yl]-1-methylurea, reference compound]
- Glyc-B DNA levels (viral load, qPCR relative to human β-actin gene) (HSV-1): inhibited the positive effect of FGF7 on viral replication

Molecule: FGF1: member of the FGF family that binds to all FGFRs
- HCV replication (HCV): does not enhance HCV replication

B1: FGF10: recombinant human FGF10, activates FGFR2b and FGFR1b (protein, UniProt O15520 38-208, looked up)
Fibroblast growth factor 10: QALGQDMVSPEATNSSSSSFSSPSSAGRHVRSYNHLQGDVRWRKLFSFTKYFLKIEKNGKVSGTKKENCPYSILEITSVEIGVVAVKAINSNYYLAMNKKGKLYGSKEFNNDCKLKERIEENGYNTYASFNWQHNGRQMYVALNGKGAPRRGQKTRRKNTSAHFLPMVVHS
- ISG expression (qRT-PCR relative to RPLP0) [3]: suppressed ISG expression to a similar extent as FGF7
